{"source": "patent US20240342238A1", "about": "“PEPTIDE HAVING OBESITY AND MUSCLE LOSS INHIBITORY ACTIVITIES, AND USE THEREOF” (Korea University Research and Business Foundation, priority 2021, published 2024)", "key": {"S6": {"system": "S6", "test": "S6 phosphorylation in L6 skeletal muscle cells (Western blot)", "format": "cell-based", "conditions": "100 nM, 1 hour; for phosphorylation of S6 (in words): FIG. 9", "method": "(§1) The effect of the peptide of the present invention on muscles was confirmed. After culturing L6 skeletal muscle cells in a 6-well plate, the cells were starved with 0.5% FBS. Afterward, 100 nM of each peptide was treated for 1 hour, and proteins were collected and subjected to Western blot."}, "FoxO1": {"system": "FoxO1", "test": "FoxO1 phosphorylation and total FoxO1 in L6 skeletal muscle cells (Western blot)", "format": "cell-based", "conditions": "100 nM, 1 hour", "method": "as §1"}, "[1]": {"system": "adipocyte protein 2 (AP2)", "test": "AP2 gene expression in muscle tissue of db/db mouse model (RT-PCR)", "format": "in vivo", "conditions": "muscle tissue of db/db mice, 2.5 mg/kg i.p. daily, 8 weeks", "method": "(§2) The obesity-improving effect of a peptide was confirmed by inducing body weight gain in an animal model in which diabetes was induced due to the defect in a leptin receptor. Specifically, C57BLKS/J-db/db 5-week-old male mice were purchased from the Central Laboratory Animal Inc., provided with a normal diet for one week, and used after an acclimation period. The breeding environment was maintained at 18 to 24° C. and a humidity of 50 to 60%, and during the acclimation period and the experimental period, free feeding was implemented with free access to normal feed and water.\n(§3) The mice that underwent the acclimation period were divided into a control and a peptide-treated group. The control group was administered PBS, and the peptide-treated group was administered Peptide No. 7 or 8 (2.5 mg/kg) intraperitoneally every day for a total of 8 weeks.\n(§4) As a result of RT-PCR, it was confirmed that, by the treatment of Peptide No. 7 or 8, the expression of adipocyte protein 2 (AP2) and CCAAT enhancer binding protein α (C/EBPα) genes, which are involved in lipid accumulation, was reduced, and the expression of a peroxisome proliferator-activated receptor α (PPARα) gene, involved in fatty acid oxidation, was increased. […]"}, "[2]": {"system": "peroxisome proliferator-activated receptor α (PPARα)", "test": "PPARα gene expression in muscle tissue of db/db mouse model (RT-PCR)", "format": "in vivo", "conditions": "muscle tissue of db/db mice, 2.5 mg/kg i.p. daily, 8 weeks", "method": "as §2, §3, §4"}, "[3]": {"system": "CCAAT enhancer binding protein α (C/EBPα)", "test": "C/EBPα gene expression in muscle tissue of db/db mouse model (RT-PCR)", "format": "in vivo", "conditions": "muscle tissue of db/db mice, 2.5 mg/kg i.p. daily, 8 weeks", "method": "as §2, §3, §4"}, "[4]": {"system": "Muscle RING Finger-1 (Murf-1)", "test": "Murf-1 gene expression in muscle tissue of db/db mouse model (RT-PCR)", "format": "in vivo", "conditions": "muscle tissue of db/db mice, 2.5 mg/kg i.p. daily, 8 weeks", "method": "as §2, §3, §4"}}, "data": [{"substance": "YFR (listed as Homo sapiens) [No. 1]", "values": [{"measurement": "increase of phosphorylation of the S6 protein", "setting": "S6", "value": 188, "unit": "%"}, {"measurement": "expression level of total FoxO1", "setting": "FoxO1", "value": "decreased"}, {"measurement": "phosphorylation of FoxO1", "setting": "FoxO1", "value": "increased"}]}, {"substance": "AQSREQLAALKK (listed as Homo sapiens) [No. 5]", "values": [{"measurement": "increase of phosphorylation of the S6 protein", "setting": "S6", "value": 494, "unit": "%"}]}, {"substance": "EQAEEERYFR (listed as Homo sapiens) [No. 4]", "values": [{"measurement": "increase of phosphorylation of the S6 protein", "setting": "S6", "value": 224, "unit": "%"}]}, {"substance": "YFRAQSREQLAALKKHH (listed as Homo sapiens) [No. 6]", "values": [{"measurement": "phosphorylation of S6 (in words)", "setting": "S6", "value": "increased"}]}, {"substance": "AGSIREAGGAFGKREQAEEERYFR (listed as Homo sapiens) [No. 7]", "values": [{"measurement": "phosphorylation of S6 (in words)", "setting": "S6", "value": "increased"}, {"measurement": "change in AP2 gene expression", "setting": "[1]", "value": "−52.5", "unit": "%"}, {"measurement": "change in PPARα gene expression", "setting": "[2]", "value": "+94.1%"}, {"measurement": "change in C/EBPα gene expression", "setting": "[3]", "value": "−18.6", "unit": "%"}, {"measurement": "change in Murf-1 gene expression", "setting": "[4]", "value": "−90.1", "unit": "%"}]}, {"substance": "REAGGAFGKR (listed as Homo sapiens) [No. 3]", "values": [{"measurement": "phosphorylation of S6 (in words)", "setting": "S6", "value": "increased"}]}, {"substance": "EQAEEER (listed as Homo sapiens) [No. 2]", "values": [{"measurement": "increase of phosphorylation of the S6 protein", "setting": "S6", "value": 365, "unit": "%"}]}, {"substance": "VDRGAGSIREAGGAFGKREQAEEERYFR (listed as Homo sapiens) [No. 8]", "values": [{"measurement": "increase of phosphorylation of the S6 protein", "setting": "S6", "value": 414, "unit": "%"}, {"measurement": "change in AP2 gene expression", "setting": "[1]", "value": "−54.7", "unit": "%"}, {"measurement": "change in PPARα gene expression", "setting": "[2]", "value": "+12.9%"}, {"measurement": "change in C/EBPα gene expression", "setting": "[3]", "value": "−45.5", "unit": "%"}, {"measurement": "change in Murf-1 gene expression", "setting": "[4]", "value": "−36.0", "unit": "%"}]}]}
